Experimental data reported in patent US12534748B2, “Engineered beta-subunit of tryptophan synthase for production of non-canonical amino acids” (California Institute of Technology, priority 2015, dated 2026).

Target: T1, Thermotoga maritima TrpB variant TmTrpB^T292S, SEQ ID NO: 26 (Thermotoga maritima, UniProt P50909, T292S)
T1 sequence (P50909 with tags, fused parts or gaps T292S): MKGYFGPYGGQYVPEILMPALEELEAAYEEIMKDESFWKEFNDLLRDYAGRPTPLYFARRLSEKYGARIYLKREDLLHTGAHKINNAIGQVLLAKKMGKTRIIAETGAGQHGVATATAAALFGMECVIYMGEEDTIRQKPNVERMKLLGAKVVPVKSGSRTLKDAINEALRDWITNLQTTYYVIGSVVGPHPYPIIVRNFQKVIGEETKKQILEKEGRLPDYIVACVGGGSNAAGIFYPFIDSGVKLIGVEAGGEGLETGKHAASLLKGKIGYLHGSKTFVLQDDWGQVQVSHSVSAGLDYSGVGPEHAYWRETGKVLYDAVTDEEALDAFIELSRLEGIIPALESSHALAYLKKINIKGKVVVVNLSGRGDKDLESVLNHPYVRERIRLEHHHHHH
Assay: Tryptophan formation from L-serine and indole, kinetics of TmTrpB^T292S
Format: biochemical
Experimental: Kinetics and UV-Vis Spectroscopy. Data were collected between 550 and 250 nm on a UV1800 Shimadzu spectrophotometer (Shimadzu) using 0.25-20 μM of enzyme in 200 mM potassium phosphate (pH 8.0) in a quartz cuvette. Samples were incubated at 75° C. for >3 min to ensure a stable temperature was reached. PfTrpB activity (kcat) was measured by monitoring tryptophan formation at 290 nm using Δe290=1.89 mM^−1·cm^−1.
Cloning, expression, and purification of the different orthologs. The genes encoding AfTrpB (UNIPROT ID O28672), TmTrpB (UNIPROT ID P50909) and EcTrpB (UNIPROT ID P0A879) were obtained from IDT and cloned into pET22(b)+ using Gibson Assembly. Protein expression was carried out in E. coli BL21 E. cloni Express cells (Lucigen) by inoculating 10-mL Terrific Broth (with 100 μg/mL ampicillin (TBamp)) with a single colony and incubated over night at 37° C. and 250 rpm. These overnight cultures were used to scale up to 500-mL TBamp expression cultures, which were grown by shaking at 250 rpm and 37° C. for ˜3 h or until an OD600 of 0.8 was reached. Then, after chilling the cultures on ice for 20 min, induction was conducted by the addition of IPTG to a final concentration of 1 mM. Induced cultures were allowed to grow at 250 rpm and 20° C. for another 20 h. After centrifugation, pelleted cells were frozen and stored at −20° C. until further use. For protein purification, thawed cells were resuspended in 50 mM potassium phosphate buffer (KPi, pH 8, 20 mM imidazole and 100 mM NaCl (buffer A)), with 200 μM PLP. Lysis was performed by adding BugBuster (Novagen) and incubating for 15 min at 37° C. Once cells were lysed, they were centrifuged to obtain the soluble protein-rich fraction. In the case of TmTrpB (but not for AfTrpB or EcTrpB), the lysate was then incubated at 75° C. for 20 min and was subjected to another centrifugation step. […]
The next homolog, TmTrpB, was examined. […] The variants without the T292S mutation lacked this probative absorbance peak, but the decrease at 428 nm and concomitant increase at 350 nm are consistent with a similar, though less pronounced activation.

How did the kcat (75° C.) turn out when c1ccc2[nH]ccc2c1 [indole] was run?
Its kcat is 5.8 s⁻¹.

What about the “increase in kcat more than TmTrpA binding” value (relative to TmTrpA binding (TmTrpS)) of the same molecule?
The value was 3 fold.

What about the increase in kcat (with respect to wild type) of the same molecule?
Its increase in kcat is 4 fold.
